Laboratory results from the supplement of paper PMC10307832.

Legend:
Test in all cases: relative viability (nuclei count vs DMSO), 5 days (fraction); higher = more cells survive
[1] = compound: CC1=C(C(=NN1)C)CC2=C(C3=C(S2)N(C(=O)N(C3=O)C)CC(C)C)C(=O)N4C[C@@H](CO4)O + CC(=O)Nc1cccc(-n2c(=O)n(C3CC3)c(=O)c3c(Nc4ccc(I)cc4F)n(C)c(=O)c(C)c32)c1 [Trametinib] (partner 0.02 µM)
Summary of the method: (§1)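 Lung cancer cell lines were pin-tool dosed in 1536-well plates on the day after seeding, with either a lone drug or a fixed anchor-drug dose plus five library-drug doses (not always all listed) in √10 steps. Nuclei were counted on 4× images after 5 days. Relative viability is the ratio of treated-well to vehicle-well nuclei counts, with each value a median of duplicate plates.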

[2] = compound: CC1=C(C(=NN1)C)CC2=C(C3=C(S2)N(C(=O)N(C3=O)C)CC(C)C)C(=O)N4C[C@@H](CO4)O + CCNC(=O)c1noc(-c2cc(C(C)C)c(O)cc2O)c1-c1ccc(CN2CCOCC2)cc1 [Luminespib] (partner 0.01 µM)
Summary of the method: as §1

[3] = compound: Cc1ccccc1C(C(=O)NC1CCCCC1)N(C(=O)Cn1ccnc1C)c1cccc(F)c1 [IDH-C35] + O=C(c1cc(Cc2n[nH]c(=O)c3ccccc23)ccc1F)N1CCN(C(=O)C2CC2)CC1 [Olaparib] (partner 8 µM)
Summary of the method: as §1

[4] = compound: Cc1ccccc1C(C(=O)NC1CCCCC1)N(C(=O)Cn1ccnc1C)c1cccc(F)c1 [IDH-C35] + CS(=O)(=O)N1CCN(Cc2cc3nc(-c4cccc5[nH]ncc45)nc(N4CCOCC4)c3s2)CC1 [Pictilisib] (partner 1 µM)
Summary of the method: as §1

Cell Line | relative viability ([1]; first compound 0.0025 µM) | relative viability ([1]; first compound 0.007906 µM) | relative viability ([1]; first compound 0.025 µM) | relative viability ([1]; first compound 0.07906 µM) | relative viability ([1]; first compound 0.25 µM) | relative viability ([2]; first compound 0.0025 µM) | relative viability ([2]; first compound 0.007906 µM) | relative viability ([2]; first compound 0.025 µM) | relative viability ([2]; first compound 0.07906 µM) | relative viability ([2]; first compound 0.25 µM) | relative viability ([3]; first compound 0.08 µM) | relative viability ([3]; first compound 0.253 µM) | relative viability ([3]; first compound 0.8 µM) | relative viability ([3]; first compound 2.53 µM) | relative viability ([3]; first compound 8 µM) | relative viability ([4]; first compound 0.08 µM) | relative viability ([4]; first compound 0.253 µM) | relative viability ([4]; first compound 0.8 µM) | relative viability ([4]; first compound 2.53 µM) | relative viability ([4]; first compound 8 µM)
NCI-H1975 | 0.38 | 0.358 | 0.403 | 0.491 | 0.33 | 0.237 | 0.294 | 0.168 | 0.16 | 0.147 | 0.809 | 0.805 | 0.815 | 0.8 | 0.735 | 0.293 | 0.322 | 0.288 | 0.319 | 0.326
NCI-H1993 | 0.627 | 0.0091 | 0.553 | 0.641 | 0.522 | 0.727 | 0.706 | 0.765 | 0.65 | 0.749 | 1.21 | 1.13 | 1.03 | 0.997 | 1.08 | 0.902 | 0.853 | 0.766 | 0.743 | 0.712
NCI-H2009 | 0.318 | 0.286 | 0.289 | 0.287 | 0.237 | 1.07 | 1.06 | 1.06 | 1.13 | 1.02 | 0.679 | 0.74 | 0.613 | 0.655 | 0.669 | 0.903 | 0.75 | 0.907 | 0.709 | 0.8
NCI-H2023 | 0.667 | 0.613 | 0.562 | 0.599 | 0.575 | 0.868 | 0.945 | 0.725 | 0.603 | 0.737 | 0.513 | 0.455 | 0.503 | 0.474 | 0.446 | 0.285 | 0.22 | 0.245 | 0.229 | 0.233
NCI-H2085 | 0.844 | 0.586 | 0.575 | 0.608 | 0.549 | 0.443 | 0.412 | 0.412 | 0.41 | 0.343 | 0.807 | 0.776 | 0.77 | 0.789 | 0.712 | 0.489 | 0.523 | 0.451 | 0.49 | 0.442
NCI-H2087 | 0.248 | 0.202 | 0.213 | 0.201 | 0.208 | 0.142 | 0.217 | 0.175 | 0.168 | 0.16 | 0.561 | 0.533 | 0.627 | 0.58 | 0.558 | 1.15 | 0.901 | 0.83 | 0.984 | 0.886
NCI-H2126 | 0.527 | 0.57 | 0.548 | 0.551 | 0.577 | 0.959 | 0.845 | 0.878 | 0.892 | 0.951 | 0.896 | 0.928 | 0.92 | 0.912 | 0.917 | 0.494 | 0.508 | 0.48 | 0.507 | 0.472
NCI-H2170 | 0.909 | 0.966 | 0.956 | 0.756 | 0.94 | 0.607 | 0.79 | 0.753 | 0.725 | 0.793 | 0.616 | 0.654 | 0.587 | 0.571 | 0.593 | 0.33 | 0.378 | 0.332 | 0.342 | 0.336
